Values of other authors, collected in article PMC13095657, “A two-step mechanism for sugar translocation” (Nature Structural & Molecular Biology, 2026).

Target: T1, XylE (Escherichia coli, UniProt P0AGF4)
T1 construct: made in house; host or cells: E. coli BL21-Gold (DE3)
Details: XylE WT in liposomes; ref https://www.jbc.org/action/showPdf?pii=S0021-9258%2821%2901315-6; read-out: KM by SSM

T1 sequence (P0AGF4 whole entry): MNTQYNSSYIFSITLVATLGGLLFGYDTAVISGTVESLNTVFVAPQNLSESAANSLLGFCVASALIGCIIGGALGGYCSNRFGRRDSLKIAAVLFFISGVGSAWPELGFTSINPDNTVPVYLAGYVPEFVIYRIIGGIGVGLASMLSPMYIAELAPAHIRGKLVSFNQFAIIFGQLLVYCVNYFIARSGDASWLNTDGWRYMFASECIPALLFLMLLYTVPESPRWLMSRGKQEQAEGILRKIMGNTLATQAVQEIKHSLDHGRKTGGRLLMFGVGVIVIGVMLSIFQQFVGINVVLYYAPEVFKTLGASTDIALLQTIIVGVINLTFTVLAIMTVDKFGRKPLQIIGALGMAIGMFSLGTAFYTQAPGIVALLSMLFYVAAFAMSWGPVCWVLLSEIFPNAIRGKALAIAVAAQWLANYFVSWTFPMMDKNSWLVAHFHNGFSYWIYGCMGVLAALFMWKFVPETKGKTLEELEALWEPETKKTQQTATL

In the case of `OC1OC[C@@H](O)[C@H](O)[C@H]1O` (stereo partly drawn) [D-xylose], the Km is given as 1700 µM.
